Source: patent US20220054493A1, “INHIBITORS OF NGAL PROTEIN” (INSERM (INSTITUT NATIONAL DE LA SANTÉ ET DE LA RECHERCHE …, priority 2019, published 2022)

Experiments:
NGAL = target: T1, NGAL (Homo sapiens, UniProt P80188); assay: NGAL-induced Col 1 secretion in human cardiac fibroblasts (ELISA); format: cell-based; conditions: FIGS. 1 and 2 panel B
T1 construct: purchased R&D Systems
Description: Cell Culture Human cardiac fibroblasts (primary culture) were obtained from Promocell and maintained in medium (Fibroblast Media 3). Cells were cultured according to the manufacturer's instructions and used between passages 5 and 7. Cells were stimulated with aldosterone (10^-8 M, Sigma) or recombinant hNGAL (500 ng/mL, R&D Systems) for 24 h for protein analysis. Mouse kidney fibroblasts (MKF), were isolated from Wild Type (WT) mice. Briefly, mice 7 to 8 weeks were sacrificed by cervical dislocation and kidneys were cleaned and rinsed in cold DPBS (Dulbecco's Phosphate-Buffered Saline). The renal cortex was minced and incubated in Dulbecco's modified eagle medium/Nutrient mixture F-12 (DMEM/F12, Sigma) containing 1 mg/mL collagenase A (Roche) during 25 minutes at 37° C. The digestion was inactivated by adding culture medium (DMEM/F12+10% FBS) then the cell suspension was passed through a 100-μm cell strainer. After centrifugation, the pellet (containing MKF) was diluted with culture medium then plated in 75 cm^2 culture flask. […]
NGAL, IL6 and collagen type I concentrations were measured in cardiac tissue and cell supernatants, respectively, by ELISA according to the manufacturer's instructions (R&D Systems).
The inhibitory activity of the compounds was evaluated on the NGAL-induced IL6 secretion (NGAL 10 ng/ml) in human cardiac fibroblasts. […]

[1] = system: Myocardial Infarction Model; assay: Cardiac fibrosis and collagen immunostaining in the myocardial infarction model; format: in vivo, mice; conditions: MI model, 100 mg/kg/day in food admix, three months
Excerpt: After assessment of cardiac hemodynamics, the heart was removed, and the atria and the ventricles were separated and weighed individually. A section of the left ventricle was immersed in Bouin fixative solution. After fixation, the sections were dehydrated and embedded in paraffin. From these sections, […] histologic slices were obtained and were stained with Sirius Red. For the measurement of cardiac collagen density, slides were examined and photographed under a light microscope (Zeiss) at 40× magnification. Collagen content was calculated as percentage of collagen area to total area of the image. Perivascular collagen was excluded from the analysis.
Frozen mid-LV sections are thawed at room temperature (30 min), immersed in acetone, rinsed in PBS (1×) and immersed in BSA (10 min each). Slides are then incubated with primary rabbit anti-human collagen-I Ab (Abcam ab 34710) (dilution 1/1000) and primary goat anti-human collagen-III Ab (Rnd NBP1 26547) (dilution 1/500) for 1 hour. Thereafter, slides are rinsed three times in PBS (1×) before being incubated with secondary antibodies donkey […] coupled with FITC (Jackson immunosearch 715-095-151) and donkey anti-goat coupled with Cy3 (Interchim A50-201D3) (dilution 1/400). After three rinses in PBS (1×), slides are mounted with a cover slip on a vecatshield+DAPI medium (Vector Laboratories). A minimum of 8/slide microscopic photographs (×20) were taken from Axiocam-Z1 (Zeiss) fluorescence microscope and analyzed with Image Pro-plus Software. Results are shown as mean±esm.

[2] = Binding to human plasma protein; format: in vitro ADME; conditions: human, human plasma protein; read-out: hPPB (converted)
Description: (§1) Two specific toxicity assays have been performed to assess hepatoxicity and cardiotoxicity. Hepatotoxicity was evaluated in isolated hepatocytes from swiss mice and determined by the MTT colorimetric assay. Cardiotoxicity was evaluated using the commercially available Predictor hERG fluorescence polarization kit (Thermo Fisher Scientific). Several ADME assays have been carried out on the compounds generated throughout the project. The following experiments were undertaken: Stability in human microsomes, binding to human plasma protein, and CYP3A4 inhibition assay (Vivid CYP3A4 assay, Thermo Fisher Scientific). Physico-chemical properties were also assessed such as aqueous solubility and chemical stability.

human plasma protein = assay: Binding to human plasma protein; format: in vitro ADME
Description: as §1

CKD Mouse Model = assay: Renal profibrotic and inflammatory gene expression in the CKD mouse model; format: in vivo, mice; conditions: kidney, two months administration
Description: Chronic kidney disease (CKD) was induced by subtotal nephrectomy (Nx) in eight-weeks-old FVB male mice (25-26 g). All surgeries were performed under ketamine/xylazine anaesthesia. Briefly, the left kidney was exposed, and the upper and lower poles were tied with a poly-glycolic acid suture line. The peritoneum and skin were then sutured, and the animals were returned to their individual cages. After one week of recovery, the second kidney was removed. Removal of the second kidney represents TO. Sham mice were subjected to the same surgical procedures but neither renal poles nor the right kidney were removed. Mice were monitored for any sign of distress, and those observed to be experiencing severe, unrelievable pain were euthanized. Renal failure was assessed by the measure of plasma creatinine and urea with an automatic analyser (Konelab 20i; Thermo Fisher Scientific, Vernon Hills, Ill.) at weeks 4 and 10 post-Nx.
Frozen tissues (kidneys, heart) were homogenized in TRIzol (Life Technologies, 15596018) using FastPrep beads (MP-Bio, 6913-100). cDNAs were generated using the Superscript II reverse transcriptase kit (Invitrogen, 18064022), and qPCR was performed as previously described. Briefly, transcript levels were analysed in a CFX396 apparatus (Biorad). The reactions were performed in duplicate for each sample using the IQ SYBR Green supermix Kit (Biorad, 170-8882). […]

[3] = system: Salt-sensitive hypertension; assay: Salt-sensitive hypertension (L-NAME plus High Salt Diet); format: in vivo, mice; conditions: GP1 100 mg/kg/day in food, 10 days; FIG. 17
Description: Systolic BP was measured by tail-cuff plethysmography in trained conscious mice at weeks 8-10 using a BP2000 Visitech model. BP was measured every day in the same room at the same hour for 5 consecutive days. The BP measurements (expressed as mmHg) presented are the averages of the last 3 days Salt-sensitive hypertension was induced by co-administration of L-NAME 70 mg/l in drinking water together with 8% NaCl in chow food (High Salt Diet, HSD) for 10 days. GP1 (100 mg/kg/day) was added or not into the food. Control experiments included vehicle (control), L-NAME or high salt (HSD) alone. Systolic blood pressure (expressed as mmHg) was estimated in the last 3 days of treatment.

T1 sequence (P80188 21-198): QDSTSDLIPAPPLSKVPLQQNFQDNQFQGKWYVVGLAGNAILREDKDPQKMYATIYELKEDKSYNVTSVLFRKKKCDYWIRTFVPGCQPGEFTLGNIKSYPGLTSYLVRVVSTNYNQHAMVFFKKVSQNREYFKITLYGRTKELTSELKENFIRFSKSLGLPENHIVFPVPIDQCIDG

CC(=O)c1cccc(S(=O)(=O)NCc2ccccc2-n2cccn2)c1 [GPZ614741]
Col 1 secretion (NGAL-induced) (NGAL): inhibited | LV interstitial collagen density ([1]; FIG. 9 panel A): significant decrease | Col I immunostaining ([1]; FIG. 9 panel B): decrease | Col III immunostaining ([1]; FIG. 9 panel C): decrease | fraction unbound [2]: 0.288 | PPB (binding to plasma proteins) (human plasma protein): low | profibrotic target genes (collagen1, fibronectin, alphaSMA) (CKD Mouse Model; FIG. 15A): blunted the increase | inflammatory markers (IL6, MCP1, TNFalpha) (CKD Mouse Model; FIG. 15B): no effects | increase of blood pressure induced by the combination of L-NAME and high salt (HSD) [3]: prevented the increase
